Experimental findings from patent US10100056B2, “SHIP1 modulators and methods related thereto” (Aquinox Pharmaceuticals (Canada) Inc., priority 2013, dated 2018) are described below.

The assay has as its system Akt phosphorylation in Molt-4 (PTEN-/SHIP1+) cells. Put plainly: Akt phosphorylation in lymphocytes (Western blot, IGF-1 stimulated). It counts as cell-based. Details: key: +: inhibits Akt phosphorylation at 30 μM; −: no effect on Akt phosphorylation at 30 μM. As to conditions: 30 μM; Molt-4 (SHIP1+) cells, IGF-1 100 ng/mL. Here is the method:
Molt-4 (PTEN-/SHIP1+) cells are starved in serum free RPMI for overnight. In a 15 mL conical tube, 2-3 million serum starved cells (1 million cells per mL) are treated with various concentrations of test compound ([…]) for 30 min at 37° C. followed by stimulation with 100 ng/mL of IGF-1 for 1 hour at 37° C. After stimulation, cells are washed once with ice-cold DPBS and lysed with Lysis Buffer (20 mM Tris-HCl, pH 7.5, 140 mM NaCl, 1% NP-40, Complete Mini Protease Inhibitor Cocktail, 10 mM NaF, 1 mM Na3VO4, 1 mM β-glycerolphosphate) on ice for 30 min with vortexing every 10 min. Samples are then centrifuged at 13,000 rpm for 20 min, and supernatants are collected as total cell lysate samples. Protein concentration is determined using bicinchonic acid assay, and about 15 μg of total protein from each sample is loaded and separated on a 4-12% Tris-Glycine gel. After SDS-PAGE, proteins are transferred from the gel to a nitrocellulose membrane. The membrane is blocked in 5% BSA in PBS containing 0.1% Tween-20 (PBS-T) for 1 hour at room temperature before probing with primary antibodies for overnight at 4° C. The following antibodies are used: mouse anti-SHIP1 (1:500 dilution; Santa Cruz, Calif., USA), rabbit anti-phospho-Akt (Ser473) (1:1000 dilution; Cell Signaling Technologies, MA, USA), rabbit anti-Akt (1:1000; Cell Signaling Technologies, MA, USA), and rabbit anti-actin (1:2000; Cell Signaling Technologies, MA, USA). The membrane is then incubated with goat anti-rabbit or anti-mouse secondary antibodies (1:3000) for 1 hour at room temperature. Target proteins on the membrane are detected with ECL solution and exposed on a film.
(In general: A western blot detects proteins with antibodies after separation by electrophoresis.)
With `CN(C)C[C@H]1C2=C(CC[C@@H]1[C@@]1(C)CC[C@H](O)C[C@@H]1CO)C(C)(C)CC2` [Cpd. No. 3, (1S,3S,4R)-4-((4R,5S)-4-((dimethylamino)methyl)-1,1-dimethyl-2,3,4,5,6,7-hexahydro-1H-inden-5-yl)-3-(hydroxymethyl)-4-methylcyclohexanol], the “Molt-4 (SHIP+): inhibition of Akt phosphorylation” value (“Molt-4 (SHIP+): inhibition” for short) was “+”.

As for `C=C1CC[C@H]2[C@H](O)[C@@H]([C@@]3(C)CC[C@H](O)C[C@@H]3CCN3CCCC3)CC[C@]12C` [Cpd. No. 11, (3aR,4R,5R,7aS)-5-((1S,2S,4S)-4-hydroxy-1-methyl-2-(2-(pyrrolidin-1-yl)ethyl)cyclohexyl)-7a-methyl-1-methyleneoctahydro-1H-inden-4-ol], the “Molt-4 (SHIP+): inhibition” value is recorded as “+”.

Regarding `C=C1CC[C@H]2[C@H](CNC(=O)C(C)(C)C)[C@@H]([C@@]3(C)CC[C@H](O)C[C@@H]3CO)CC[C@]12C` [Cpd. No. 20, N-(((3aS,4R,5S,7aS)-5-((1R,2S,4S)-4-hydroxy-2-(hydroxymethyl)-1-methylcyclohexyl)-7a-methyl-1-methyleneoctahydro-1H-inden-4-yl)methyl)pivalamide], the “Molt-4 (SHIP+): inhibition” value was “+”.

For `C=C1CC[C@H]2[C@H](CNC(=O)C(C)C)[C@@H]([C@@]3(C)CC[C@H](O)C[C@@H]3CO)CC[C@]12C` [Cpd. No. 21, N-(((3aS,4R,5S,7aS)-5-((1R,2S,4S)-4-hydroxy-2-(hydroxymethyl)-1-methylcyclohexyl)-7a-methyl-1-methyleneoctahydro-1H-inden-4-yl)methyl)isobutyramide], the “Molt-4 (SHIP+): inhibition” value is given as “+”.

`C=C1CC[C@H]2[C@H](CNC(=O)CC)[C@@H]([C@@]3(C)CC[C@H](O)C[C@@H]3CO)CC[C@]12C` [Cpd. No. 22, N-(((3aS,4R,5S,7aS)-5-((1R,2S,4S)-4-hydroxy-2-(hydroxymethyl)-1-methylcyclohexyl)-7a-methyl-1-methyleneoctahydro-1H-inden-4-yl)methyl)propionamide]: the “Molt-4 (SHIP+): inhibition” value was “+”.

`C=C1CC[C@H]2[C@H](CNC(=O)CCC)[C@@H]([C@@]3(C)CC[C@H](O)C[C@@H]3CO)CC[C@]12C` [Cpd. No. 23, N-(((3aS,4R,5S,7aS)-5-((1R,2S,4S)-4-hydroxy-2-(hydroxymethyl)-1-methylcyclohexyl)-7a-methyl-1-methyleneoctahydro-1H-inden-4-yl)methyl)butyramide]: the “Molt-4 (SHIP+): inhibition” value is recorded as “+”.

For `C=C1CC[C@H]2[C@H](CNC(=O)CCCC)[C@@H]([C@@]3(C)CC[C@H](O)C[C@@H]3CO)CC[C@]12C` [Cpd. No. 24, N-(((3aS,4R,5S,7aS)-5-((1R,2S,4S)-4-hydroxy-2-(hydroxymethyl)-1-methylcyclohexyl)-7a-methyl-1-methyleneoctahydro-1H-inden-4-yl)methyl)pentanamide], the “Molt-4 (SHIP+): inhibition” value is “+”.

As to `C=C1CC[C@H]2[C@H](CCN)[C@@H]([C@@]3(C)CC[C@H](O)C[C@@H]3CO)CC[C@]12C` [Cpd. No. 29, (1S,3S,4R)-4-((3aS,4R,5S,7aS)-4-(2-aminoethyl)-7a-methyl-1-methyleneoctahydro-1H-inden-5-yl)-3-(hydroxymethyl)-4-methylcyclohexanol], the “Molt-4 (SHIP+): inhibition” value is reported as “+”.

In the case of `C=C1CC[C@H]2[C@H](CNCc3cc(OC)cc(OC)c3)[C@@H]([C@@]3(C)CC[C@H](O)C[C@@H]3CO)CC[C@]12C` [Cpd. No. 32, (1S,3S,4R)-4-((3aS,4R,5S,7aS)-4-((3,5-dimethoxybenzylamino)methyl)-7a-methyl-1-methyleneoctahydro-1H-inden-5-yl)-3-(hydroxymethyl)-4-methylcyclohexanol], the “Molt-4 (SHIP+): inhibition” value is reported as “+”.

Take `C=C1CC[C@H]2[C@H](CNCc3ccc4c(c3)OCO4)[C@@H]([C@@]3(C)CC[C@H](O)C[C@@H]3CO)CC[C@]12C` [Cpd. No. 34, (1S,3S,4R)-4-((3aS,4R,5S,7aS)-4-((benzo[d][1,3]dioxol-5-ylmethylamino)methyl)-7a-methyl-1-methyleneoctahydro-1H-inden-5-yl)-3-(hydroxymethyl)-4-methylcyclohexanol]: the “Molt-4 (SHIP+): inhibition” value is given as “+”.

For the compound `C=C1CC[C@H]2[C@H](O)[C@@H]([C@@]3(C)CC[C@H](O)C[C@@H]3CCN3CCN(C)CC3)CC[C@]12C` [Cpd. No. 48, (3aR,4R,5R,7aS)-5-((1S,2S,4S)-4-hydroxy-1-methyl-2-(2-(4-methylpiperazin-1-yl)ethyl)cyclohexyl)-7a-methyl-1-methyleneoctahydro-1H-inden-4-ol], the “Molt-4 (SHIP+): inhibition” value is “+”.

As for `C=C1CC[C@H]2[C@H](O)[C@@H]([C@@]3(C)CC[C@H](O)C[C@@H]3CCn3ccnc3)CC[C@]12C` [Cpd. No. 50, (3aR,4R,5R,7aS)-5-((1S,2S,4S)-2-(2-(1H-imidazol-1-yl)ethyl)-4-hydroxy-1-methylcyclohexyl)-7a-methyl-1-methyleneoctahydro-1H-inden-4-ol], the “Molt-4 (SHIP+): inhibition” value was “+”.

For the compound `C=C1CC[C@H]2[C@H](O)[C@@H]([C@@]3(C)CC[C@H](O)C[C@@H]3CCOc3ccccn3)CC[C@]12C` [Cpd. No. 57, (3aR,4R,5R,7aS)-5-((1S,2S,4S)-4-hydroxy-1-methyl-2-(2-(pyridin-2-yloxy)ethyl)cyclohexyl)-7a-methyl-1-methyleneoctahydro-1H-inden-4-ol], the “Molt-4 (SHIP+): inhibition” value is “+”.

As for `C=C1CC[C@H]2[C@H](CNC(=O)c3ccco3)[C@@H]([C@@]3(C)CC[C@H](O)C[C@@H]3CO)CC[C@]12C` [Cpd. No. 81, N-(((3aS,4R,5S,7aS)-5-((1R,2S,4S)-4-hydroxy-2-(hydroxymethyl)-1-methylcyclohexyl)-7a-methyl-1-methyleneoctahydro-1H-inden-4-yl)methyl)furan-2-carboxamide], the “Molt-4 (SHIP+): inhibition” value was “+”.

On to `C=C1CC[C@H]2[C@H](CNC(=O)C3CC3)[C@@H]([C@@]3(C)CC[C@H](O)C[C@@H]3CO)CC[C@]12C` [Cpd. No. 82, N-(((3aS,4R,5S,7aS)-5-((1R,2S,4S)-4-hydroxy-2-(hydroxymethyl)-1-methylcyclohexyl)-7a-methyl-1-methyleneoctahydro-1H-inden-4-yl)methyl)cyclopropanecarboxamide], for which the “Molt-4 (SHIP+): inhibition” value was “+”.

With `C=C1CC[C@H]2[C@H](CNC(=O)C3CCCCC3)[C@@H]([C@@]3(C)CC[C@H](O)C[C@@H]3CO)CC[C@]12C` [Cpd. No. 83, N-(((3aS,4R,5S,7aS)-5-((1R,2S,4S)-4-hydroxy-2-(hydroxymethyl)-1-methylcyclohexyl)-7a-methyl-1-methyleneoctahydro-1H-inden-4-yl)methyl)cyclohexanecarboxamide], the “Molt-4 (SHIP+): inhibition” value is on record as “+”.

Take `C=C1CC[C@H]2[C@H](CNC(=O)NCC)[C@@H]([C@@]3(C)CC[C@H](O)C[C@@H]3CO)CC[C@]12C` [Cpd. No. 84, 1-ethyl-3-(((3aS,4R,5S,7aS)-5-((1R,2S,4S)-4-hydroxy-2-(hydroxymethyl)-1-methylcyclohexyl)-7a-methyl-1-methyleneoctahydro-1H-inden-4-yl)methyl)urea]: the “Molt-4 (SHIP+): inhibition” value is on record as “+”.

`C=C1CC[C@H]2[C@H](CNC(=S)NC)[C@@H]([C@@]3(C)CC[C@H](O)C[C@@H]3CO)CC[C@]12C` [Cpd. No. 85, 1-(((3aS,4R,5S,7aS)-5-((1R,2S,4S)-4-hydroxy-2-(hydroxymethyl)-1-methylcyclohexyl)-7a-methyl-1-methyleneoctahydro-1H-inden-4-yl)methyl)-3-methylthiourea]: the “Molt-4 (SHIP+): inhibition” value is “+”.

`C=C1CC[C@H]2[C@H](CNC(=O)C(F)(F)F)[C@@H]([C@@]3(C)CC[C@H](O)C[C@@H]3CO)CC[C@]12C` [Cpd. No. 86, 2,2,2-trifluoro-N-(((3aS,4R,5S,7aS)-5-((1R,2S,4S)-4-hydroxy-2-(hydroxymethyl)-1-methylcyclohexyl)-7a-methyl-1-methyleneoctahydro-1H-inden-4-yl)methyl)acetamide]: the “Molt-4 (SHIP+): inhibition” value is recorded as “+”.

Consider `C=C1CC[C@H]2[C@H](CC#N)[C@@H]([C@@]3(C)CC[C@H](O)C[C@@H]3CO)CC[C@]12C` [Cpd. No. 87, 2-((3aS,4R,5S,7aS)-5-((1R,2S,4S)-4-hydroxy-2-(hydroxymethyl)-1-methylcyclohexyl)-7a-methyl-1-methyleneoctahydro-1H-inden-4-yl)acetonitrile], for which the “Molt-4 (SHIP+): inhibition” value is given as “+”.

As to `C=C1CC[C@H]2[C@H](CNOC)[C@@H]([C@@]3(C)CC[C@H](O)C[C@@H]3CO)CC[C@]12C` [Cpd. No. 88, (1S,3S,4R)-3-(hydroxymethyl)-4-((3aS,4R,5S,7aS)-4-((methoxyamino)methyl)-7a-methyl-1-methyleneoctahydro-1H-inden-5-yl)-4-methylcyclohexanol], the “Molt-4 (SHIP+): inhibition” value is given as “+”.
